O=C(O)/C=C/c1cccc(O)c1
solubility (mole fraction)
Conditions	in ethanol	in ethyl acetate	in isobutanol	in isopropanol	in methanol	in methyl acetate	in n-butanol	in n-propanol	in n-propyl acetate
293.15 K	0.0594	0.0177	0.0317	0.0611	0.0516	0.0189	0.0474	0.0493	0.0155
298.15 K	0.0632	0.0201	0.0351	0.0662	0.0557	0.0212	0.0513	0.0533	0.0184
303.15 K	0.0687	0.0228	0.0397	0.0724	0.0611	0.0239	0.0566	0.0585	0.0212
308.15 K	0.0742	0.0256	0.0449	0.0794	0.0669	0.0276	0.0617	0.064	0.0236
313.15 K	0.0802	0.0294	0.0502	0.0859	0.0731	0.0315	0.0677	0.0701	0.0269
318.15 K	0.087	0.0329	0.0561	0.0933	0.0801	0.0358	0.0741	0.0766	0.0302
323.15 K	0.0949	0.0377	0.0628	0.101	0.0887	0.0402	0.0806	0.0842	0.035
328.15 K	0.103	0.0438	0.0706	0.109	0.0995	0.0458	0.0887	0.093	0.041
333.15 K	0.114	0.0489	0.0802	0.12	0.113	–	0.0989	0.104	0.0471

Reference: BigSolDB 2.1
